Key:
[1] = n-octanol/water partition coefficient, shake-flask method; format: physicochemical; settings: n-octanol / buffered saline pH 7.4, shake-flask
Description: The n-octanol/water coefficient of the complexes was determined using the shake-flask method previously described. Buffered-saline distilled water (100 mL, phosphate buffer PO4^3− = 10 mM, (NaCl = 0.15 M, pH 7.4) and n-octanol (100 mL) were shaken together for 72 h to allow the saturation of both phases. Approximately 1 mg of the complexes was dissolved in 5 mL of the aqueous phase, and 5 mL of the organic phase was added, mixing for 10 min. The resulting emulsion was centrifuged to separate the phases. The concentration of the compounds in each phase was determined using UV−Vis absorbance spectroscopy. Log P7.4 was calculated as log (Absorganic/Absaqueous).
Biodistribution studies should be conducted to evaluate whether our complexes could reach their pharmacological target. The potential biodistribution of our complexes was evaluated by the measure of the partition coefficient. This parameter indicates how balanced the lipo- and hydrophilicity of the compounds are. Good equilibrium between these two properties is crucial for proper distribution inside the organism. The bloodstream is aqueous in nature, so hydrophilicity is needed for drug delivery, but too-high hydrophilicity can hinder the penetration of biological membranes. Of course, high lipophilicity behavior can hinder biomedical applications related to a good distribution profile. The chosen method to measure the partition coefficient (Log Pow) was the shake-flask technique, with ideal values in the range of −1 ≤ Log P ow ≤ 3. However, for a greater oral and intestinal absorption, a more restricted range has values around 1.35–1.80 [57]. Table 2 collects all of the obtained Log Pow values, and it can be seen that, although only complex [Au(ppy)(dedtc)]PF6 (C4) satisfied this restricted range, all of them presented acceptable values of Log Pow.

Caco-2/TC7 normal cells = assay: MTT cell viability, normal (differentiated) Caco-2/TC7 cells (15 days after seeding); format: cell-based, human; settings: Caco-2/TC7, 15 days after seeding, 72 h incubation
Description: This study was conducted in the human enterocyte-like cell line Caco-2/TC7 [44]. This cell line undergoes a process of spontaneous differentiation in culture that leads to the formation of a monolayer of cells, expressing the morphological and functional characteristics of the mature enterocytes. This differentiation process is growth-dependent, where the cells undergo differentiation from “undifferentiated proliferative crypt-type cells” in the exponential phase of growth, to “differentiated enterocyte-type cells” in the stationary phase. The cell culture of Caco-2/TC7 cells (passages 30–50) was performed according to a previously reported method.
Cell survival was measured using the MTT test. The assay depends on the cellular reduction of 3-(4,5-dimethylthiazol-2-yl)-2,5-diphenyltetrazolium bromide (MTT, Sigma-Aldrich, Madrid, Spain) by the mitochondrial dehydrogenase of viable cells to a blue formazan product that can be measured spectrophotometrically, as previously described.
The in vitro cytotoxic effect was evaluated on human colon cancer cell line Caco-2/TC7. This particular cell line presents a huge advantage for toxicity studies because of its spontaneous enterocytic-like differentiation when confluence is reached. Therefore, Caco-2 cells become polarized cells expressing apical and basolateral surfaces with well-established tight junctions. Thus, cells present noncarcinogenic behavior in the confluence and the cytotoxic effect of our complexes can be performed on differentiated cells to evaluate the selectivity toward tumor cells. For the antiproliferative studies, MTT assay was performed after 72 h of exposure to different concentrations of the complexes at two different stages of confluence, five days to evaluate the effect on tumor cells (Figure S7) and 15 days for normal cells (Figure S8).

BSA = molecular target: T1, BSA (Bos taurus, UniProt P02769); assay: BSA interaction, fluorescence quenching (Stern–Volmer); format: binding, bovine; settings: for bimolecular quenching constant kq: BSA 50 μM in PBS pH 7.4; for Stern–Volmer quenching constant KSV: BSA 50 μM in PBS pH 7.4, excitation 295 nm; for number of binding sites n: modified Stern–Volmer equation; for number of binding sites n, rounded (in brackets): whole number printed in brackets after n
T1 construct: purchased Sigma Aldrich
Description: BSA was commercially available from Sigma Aldrich. A 2 mM solution of BSA was prepared in PBS (10 mM, pH = 7.4). The final concentration of the stock BSA solution was checked by UV–Vis spectra (ε279 nm = 43,824 M^−1 cm^−1). The value obtained was the real concentration of the stock solution. A 6 mM stock solution of the gold complexes in DMSO was prepared and different aliquots of the gold complex were added to a 50 μM solution of BSA in PBS and placed in a quartz cuvette of 1 cm optical path. The fluorescence spectra were recorded on a Horiba Jobin Yvon (Bensheim, Germany) fluorolog FL-3-11 spectrometer. The samples were excited at 295 nm and the emission spectra were recorded in a range from 310 to 450 nm with emission slits set to 2 nm. The fluorescence was measured for 4 min after every addition of the gold complex aliquots. The fluorescence intensities of the PBS and the gold complexes were irrelevant under the described conditions.
The data were analyzed using the Stern−Volmer equation F0/F = 1 + KSV (gold complex) = 1 + Kqτ0 (gold complex) (τ0 = lifetime of BSA in absence of the quencher) to obtain the Stern−Volmer quenching constant (KSV) and the quenching rate constant (Kq). The binding constant (Kb) was quantified using the modified Stern−Volmer equation: log {(F0 − F)/F} = log Kb + n log (gold complex) (n = number of binding sites).
This intrinsic fluorescence is extremely sensitive to the environment, so any binding or interaction of molecules induces changes in the BSA emission spectrum. Consequently, interaction with BSA studies are based on monitoring the BSA luminescence in the range of 300–450 nm by adding increasing concentrations of Au(III) complexes (Figure 3a and Figure S6). The obtained fluorescence data were analyzed using the Stern–Volmer equation, which allows the Stern-Volmer quenching constant KSV and the bimolecular quenching constant kq to be calculated (Figure 3b). In most of the cases studied, the Stern–Volmer representation fit a straight line, indicative of a single quenching mode, either static or dynamic. In case of drug development, static quenching is usually required to probe an interaction between the drug and the protein. By studying the bimolecular quenching constant (kq), the operated quenching can be determined since this parameter represents the efficiency of quenching or how accessible the fluorophores are to the quencher. Dynamic quenching depends on diffusion processes, so a higher kq value than the diffusion-controlled rate constant of the biomolecule in water, 10^10 M^−1s^−1, may indicate a contribution of static quenching. […] Additionally, the modified Stern–Volmer equation permits the values of the binding constant (Kb) for each gold complex and the number of binding sites (n) to be calculated. According to the Kb values observed in Table 3, there was a moderated interaction force between complex-BSA. These values were higher than other reported for gold(I) complexes, but similar to the documented interactions for potential drugs based on ruthenium or nickel.

Molecule | Log Pow [1] | IC50 (Caco-2/TC7 normal cells) | bimolecular quenching constant kq (BSA) | Stern–Volmer quenching constant KSV (BSA) | number of binding sites n (BSA) | number of binding sites n, rounded (in brackets) (BSA)
Cc1ccc(-c2ccccn2)[c]([Au+][S]C(=S)N(C)C)c1.F[P-](F)(F)(F)(F)F [Complex C1, [Au(tpy)(dmdtc)] PF6] | 0.61 | 23.03 ± 0.06 µM | 1.3e+12 M⁻¹ s⁻¹ | 13000 M⁻¹ | 1.72 | 2
CN(C)C(=S)[S][Au+][c]1ccccc1-c1ccccn1.F[P-](F)(F)(F)(F)F [Complex C2, [Au(ppy)(dmdtc)]PF6] | 1.11 | 15.69 ± 0.06 µM | 1.37e+12 M⁻¹ s⁻¹ | 13700 M⁻¹ | 1.42 | 1
CCN(CC)C(=S)[S][Au+][c]1cc(C)ccc1-c1ccccn1.F[P-](F)(F)(F)(F)F [Complex C3, [Au(tpy)(dedtc)]PF6] | 1.17 | 12.95 ± 0.11 µM | 1.9e+12 M⁻¹ s⁻¹ | 19000 M⁻¹ | 0.95 | 1
Cc1ccc2[c](c1)[Au-]1([S]C(N(Cc3ccccc3)Cc3ccccc3)=[S+]1)[n+]1ccccc1-2.F[P-](F)(F)(F)(F)F (stereo not drawn) [Complex C5, [Au(tpy)(dbdtc)]PF6] | 0.89 | > 100 µM | 4.43e+12 M⁻¹ s⁻¹ | 44300 M⁻¹ | 1.57 | 1–2
F[P-](F)(F)(F)(F)F.S=C([S][Au+][c]1ccccc1-c1ccccn1)N(Cc1ccccc1)Cc1ccccc1 [Complex C6, [Au(ppy)(dbdtc)]PF6] | 1.00 | 24.7 ± 0.36 µM | 6.44e+12 M⁻¹ s⁻¹ | 64400 M⁻¹ | 1.43 | 1
[Au(ppy)(dedtc)]PF6 [Complex C4] | 1.57 | 16.79 ± 0.13 µM | 2.01e+12 M⁻¹ s⁻¹ | 20100 M⁻¹ | 1.18 | 1
